Entries after “also recorded” stand apart in the source; their conditions may differ.
Tests used:
eeAChE = eeAChE (Electrophorus electricus, UniProt O42275); assay: biochemical; conditions: eeAChE from electric eel; read-out: IC50 AChE (eeAChE)
[1] = tested on: Aβ25-35-induced learning impairments in mice; conditions: mouse, ip
hCB2R = target: T1, hCB2R (Homo sapiens, UniProt P34972); type: cell-based
T1 construct: expressed in transfected cells; host or cells: HEK cells stably expressing hCB2R

hBChE = hBChE (Homo sapiens, UniProt P06276); assay: biochemical; type: biochemical
HT-22 cells = type: cell-based, murine
[2] = target: hAChE-induced Aβ40 aggregation (Homo sapiens, UniProt P22303); assay: biochemical; type: biochemical
Aβ42 = Aβ42 (Homo sapiens, UniProt P05067); assay: Aβ42 self-aggregation, thioflavin-T fluorescence assay; type: biochemical
[3] = tested on: murine microglial cell line N9; assay: Microglia activation: LPS-activated N9 cells, M1/M2 markers (Griess reaction, western blot); type: cell-based
hAChE = hAChE (Homo sapiens, UniProt P22303); assay: biochemical; type: biochemical; conditions: hAChE recombinant expressed
hCB1R = target: T2, hCB1R (Homo sapiens, UniProt P21554); type: binding
T2 construct: expressed in transfected cells; host or cells: CHO cells stably expressing hCB1R

[4] = N9 cells, 100 ng/mL LPS, 1-5 µM compound, 24 h, M1 marker
[5] = N9 cells, 100 ng/mL LPS, 1-5 µM compound, 24 h, M2 marker

Chain of Aβ42 (P05067 672-713): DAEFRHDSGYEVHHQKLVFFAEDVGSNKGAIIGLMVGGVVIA
T1 sequence (P34972 whole entry): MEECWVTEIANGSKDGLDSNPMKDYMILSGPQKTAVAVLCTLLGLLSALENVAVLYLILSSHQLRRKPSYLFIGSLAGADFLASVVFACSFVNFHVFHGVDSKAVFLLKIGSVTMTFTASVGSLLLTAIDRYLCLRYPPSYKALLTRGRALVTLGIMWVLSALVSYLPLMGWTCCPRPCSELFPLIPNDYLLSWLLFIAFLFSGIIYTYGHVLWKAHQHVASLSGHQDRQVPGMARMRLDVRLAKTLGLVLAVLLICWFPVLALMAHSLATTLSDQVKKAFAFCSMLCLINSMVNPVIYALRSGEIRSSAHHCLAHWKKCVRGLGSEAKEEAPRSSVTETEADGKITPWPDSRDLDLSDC
Chain of hAChE-induced Aβ40 aggregation (P22303 32-614): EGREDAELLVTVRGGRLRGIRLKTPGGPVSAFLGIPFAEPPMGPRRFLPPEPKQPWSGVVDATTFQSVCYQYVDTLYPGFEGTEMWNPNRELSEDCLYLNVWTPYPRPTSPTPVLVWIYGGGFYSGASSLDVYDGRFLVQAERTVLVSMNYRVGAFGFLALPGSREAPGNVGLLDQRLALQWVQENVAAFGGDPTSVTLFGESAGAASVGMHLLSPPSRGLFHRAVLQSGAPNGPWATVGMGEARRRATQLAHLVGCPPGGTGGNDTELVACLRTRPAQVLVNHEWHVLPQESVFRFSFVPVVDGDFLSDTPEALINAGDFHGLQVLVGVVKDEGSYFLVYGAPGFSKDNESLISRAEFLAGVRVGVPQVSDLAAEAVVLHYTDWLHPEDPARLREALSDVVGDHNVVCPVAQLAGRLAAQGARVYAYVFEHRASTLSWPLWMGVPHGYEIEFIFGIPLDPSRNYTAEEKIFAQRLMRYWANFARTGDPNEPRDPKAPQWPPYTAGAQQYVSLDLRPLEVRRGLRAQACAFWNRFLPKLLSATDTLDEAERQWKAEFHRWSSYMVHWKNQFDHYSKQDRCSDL
Chain of hAChE (P22303 32-614): as above
Chain of hBChE (P06276 29-602): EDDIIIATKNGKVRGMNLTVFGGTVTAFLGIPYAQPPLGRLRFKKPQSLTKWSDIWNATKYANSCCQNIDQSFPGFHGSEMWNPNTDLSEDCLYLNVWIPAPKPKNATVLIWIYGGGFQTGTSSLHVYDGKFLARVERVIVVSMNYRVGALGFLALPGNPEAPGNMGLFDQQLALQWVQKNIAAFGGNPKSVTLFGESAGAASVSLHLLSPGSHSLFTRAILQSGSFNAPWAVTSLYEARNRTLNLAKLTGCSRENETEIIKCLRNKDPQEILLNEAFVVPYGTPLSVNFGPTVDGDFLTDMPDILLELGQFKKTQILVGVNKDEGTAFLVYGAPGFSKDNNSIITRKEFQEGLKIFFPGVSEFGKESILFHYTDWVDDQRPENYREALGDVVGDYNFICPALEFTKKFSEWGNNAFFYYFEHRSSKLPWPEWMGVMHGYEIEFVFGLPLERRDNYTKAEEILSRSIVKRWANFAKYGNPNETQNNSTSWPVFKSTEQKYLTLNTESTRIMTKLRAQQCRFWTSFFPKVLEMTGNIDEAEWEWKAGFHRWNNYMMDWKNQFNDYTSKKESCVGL
T2 sequence (P21554 whole entry): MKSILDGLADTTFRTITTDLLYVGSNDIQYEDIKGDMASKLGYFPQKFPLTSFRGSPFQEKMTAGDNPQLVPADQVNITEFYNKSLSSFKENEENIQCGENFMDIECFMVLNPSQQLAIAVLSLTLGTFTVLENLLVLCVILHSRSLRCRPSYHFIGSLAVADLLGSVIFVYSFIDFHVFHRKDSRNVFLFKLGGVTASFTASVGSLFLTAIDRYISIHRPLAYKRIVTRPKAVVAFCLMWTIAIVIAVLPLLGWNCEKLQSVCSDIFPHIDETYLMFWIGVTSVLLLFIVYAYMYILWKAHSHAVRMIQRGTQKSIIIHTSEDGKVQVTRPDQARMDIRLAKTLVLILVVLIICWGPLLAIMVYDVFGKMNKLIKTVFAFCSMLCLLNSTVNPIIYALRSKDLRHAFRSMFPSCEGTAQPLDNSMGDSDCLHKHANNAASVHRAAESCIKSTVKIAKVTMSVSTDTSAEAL
Chain of eeAChE (O42275 24-633): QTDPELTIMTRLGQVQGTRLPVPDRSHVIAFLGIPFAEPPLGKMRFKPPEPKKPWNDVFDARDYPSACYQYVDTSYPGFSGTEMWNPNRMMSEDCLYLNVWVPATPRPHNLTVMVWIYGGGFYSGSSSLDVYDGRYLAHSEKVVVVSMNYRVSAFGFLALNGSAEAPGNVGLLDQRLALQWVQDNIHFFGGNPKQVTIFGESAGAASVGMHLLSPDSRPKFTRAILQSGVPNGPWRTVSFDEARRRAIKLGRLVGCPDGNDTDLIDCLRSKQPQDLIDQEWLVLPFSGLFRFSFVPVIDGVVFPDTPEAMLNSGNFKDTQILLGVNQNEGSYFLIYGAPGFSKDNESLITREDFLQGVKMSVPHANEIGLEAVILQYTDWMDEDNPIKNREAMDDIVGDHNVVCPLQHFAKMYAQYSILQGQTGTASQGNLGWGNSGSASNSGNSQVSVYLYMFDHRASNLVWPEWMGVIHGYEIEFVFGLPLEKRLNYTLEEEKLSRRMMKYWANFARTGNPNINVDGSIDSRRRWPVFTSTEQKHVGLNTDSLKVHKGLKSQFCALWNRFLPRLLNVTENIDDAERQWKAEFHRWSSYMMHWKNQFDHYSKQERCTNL

CCOc1ccc(Cc2nc3cc(C(=O)N(CC)CC)ccc3n2CCCCCCNc2c3c(nc4ccccc24)CCCC3)cc1 [compound 3e, 2-(4-Ethoxybenzyl)-N,N-diethyl-1-(6-((1,2,3,4-tetrahydroacridin-9-yl)amino)hexyl)-1H-benzo[d]imidazole-5-carboxamide]
IC50 (eeAChE): 0.5 nM | dose that significantly prevented Aβ25-35-induced learning impairments ([1]; in vivo): 0.3 mg/kg | most effective dose (completely prevented Aβ25-35 impairments in both tests) ([1]; in vivo): 0.3 mg/kg | dose given for the high in vivo efficacy (conclusion) [1]: 0.1 mg/kg | MIF gene expression (hCB2R): reduced | STAT-3 gene expression (hCB2R): reduced | behavior at the hCB2R (hCB2R): maintained their agonist behavior | inhibitory potency towards hBChE compared to tacrine (hBChE; compared to tacrine): increased inhibitory potency | IC50 (hBChE; hBChE from human serum, means of at least three determinations, read-out: IC50 hBChE): 1.9 nM | neuroprotective behavior (in words) (HT-22 cells): low neuroprotective behavior; also recorded: showed neuroprotection | inhibition of AChE-induced Aβ40 aggregation (in words) [2]: pronounced inhibition; also recorded: significantly reduce | inhibition at 100 µM ([2]; [I] = 100 µM, Aβ40/hAChE ratio 100/1, mean ± SEM, read-out: % inhibition Aβ aggregation AChE-induced): 62.9 ± 5.4% | inhibition at 50 µM (Aβ42; 50 µM inhibitor and 50 µM Aβ42, mean ± SEM, read-out: % inhibition Aβ aggregation self-induced): 81.5 ± 2% | inhibition of Aβ42 self-aggregation (in words) (Aβ42; 1/1 ratio with Aβ42): pronounced inhibition; also recorded: strongly inhibited | immunomodulatory effect ([3]; LPS-activated microglial cells): immunomodulatory effect | NO release / nitrite accumulation ([3]; N9 cells, 100 ng/mL LPS, 1-5 µM compound, 24 h): reduced; also recorded: strongly reduces | IL1β release [3, 4]: significantly decrease; also recorded: strongly reduces | iNOS expression [3, 4]: significantly decrease; also recorded: strongly reduces | TGFβ2 expression [3, 5]: not reduced; also recorded: no parallel change | TREM2 expression [3, 5]: not reduced; also recorded: no parallel change | pIC50 ± SD AChE (hAChE) (hAChE): 7.1 ± 0.1 | IC50 (hAChE; read-out: IC50 AChE (hAChE)): 86.1 nM | [^3H]CP 55,940 displ. @10 µM hCB1R (hCB1R): 17%
